Test results as given in ChEMBL document CHEMBL1148051, “Antibiotic activity and absolute configuation of 8S-heptadeca-2(Z),9(Z)-diene-4,6-diyne-1,8-diol from Bupleurum salicifolium” (1994).
Converted amounts (≈) assume the structure as drawn. The source made the active and inactive calls. The calls are words filed in the database; no cut-off is given here.

Tests used:
[1] = test system: Pseudomonas aeruginosa; experiment: Antibacterial activity against Pseudomonas aeruginosa AK 958; type: functional, organism-based
[2] = test system: Staphylococcus aureus; experiment: Antibacterial activity against Staphylococcus aureus ATCC 6538 by rotary shaker method; type: functional
[3] = test system: Salmonella; experiment: Antibacterial activity against Salmonella sp. CECT 456; type: functional, organism-based
[4] = test system: Escherichia coli; experiment: Antibacterial activity against Escherichia coli CECT 99; type: functional, organism-based
[5] = test system: Bacillus subtilis; experiment: Antibacterial activity against Bacillus subtilis CECT 39 by rotary shaker method; type: functional
[6] = test system: Candida albicans; experiment: Antifungal activity against Candida albicans UBC1; type: functional, organism-based

MIC [2]: 10 µg/mL (≈ 38.4 µM)
MIC [5]: 10.5 µg/mL (≈ 40.3 µM)
SMILES: CCCCCCC/C=C\[C@H](O)C#CC#C/C=C\CO
Activity [1]: inactive
Activity [3]: inactive
Activity [4]: inactive
Activity [6]: inactive
